We go through ten substances from US20040127446A1 (priority 1992, published 2004).

[2NH2-N] = 2'-deoxy-2'-amino ribonucleotide (N: the base); [invAb] = 3' inverted deoxyabasic cap; [I] = hypoxanthine (inosine); m = 2'-O-methyl; r = 2'-OH (RNA)

The test system of the data set is minus strand HCV RNA. It counts as biochemical, Hepatitis C virus. The conditions noted are these: minus strand (−) HCV site, 50 mM Tris-Cl, pH 8.0, 40 mM Mg2+ at 37°, trace substrate, enzymatic nucleic acid concentration of 500 nM or greater.
Take “22753 (UGGAAGAGCCGAAAGGCGAGUGAGGUCUACUGAGA; 2'-O-methyl at 1, 2, 3, 4, 5, 6, 7, 8, 9, 10, 11, 12, 13, 14, 15, 16, [2NH2-N] at 17, 27, [invAb] at 3' end, other sugars and backbone not given here) [compound 22753]”: the “% Substrate Cleaved in 3 hours” value is 89.39%.

Take “22949 (GCUGGAACUGAUGAGGCCGUUAGGCCGAAACACUGA; 2'-O-methyl at 1, 2, 3, 4, 5, 6, 7, 15, 16, 17, 18, 19, 20, 21, 22, 23, 24, 25, 26, 31, 32, 33, 34, 35, 36, [invAb] at 3' end, other sugars and backbone not given here) [compound 22949]”: the “% Substrate Cleaved in 3 hours” value is given as 89.16%.

“22980 (GUUGUGAGGCTAGCTACAACGAUUGGAGGN; 3' inverted abasic cap (B); Description of Artificial Sequence: Nucleic Acid; misc_feature (30)..(30): n stands for inverted deoxyabasic derivative; misc_feature (1)..(7): 2'-O-Methyl; misc_feature (23)..(29): 2'-O-Methyl) [compound 22980]”: the “% Substrate Cleaved in 3 hours” value is reported as 34.60%. On to “22948 (GCGAGCCCUGAUGAGGCCGUUAGGCCGAAACGAGUC; 2'-O-methyl at 1, 2, 3, 4, 5, 6, 7, 15, 16, 17, 18, 19, 20, 21, 22, 23, 24, 25, 26, 31, 32, 33, 34, 35, 36, [invAb] at 3' end, other sugars and backbone not given here) [compound 22948]”, for which the “% Substrate Cleaved in 3 hours” value is 88.34%. To “22951 (UGAGGAGCUGAUGAGGCCGUUAGGCCGAAACGUGGA; 2'-O-methyl at 1, 2, 3, 4, 5, 6, 7, 15, 16, 17, 18, 19, 20, 21, 22, 23, 24, 25, 26, 31, 32, 33, 34, 35, 36, [invAb] at 3' end, other sugars and backbone not given here) [compound 22951]” belongs 83.25%; to “22781 (GAGAUGACUGAUGAGGCCGUUAGGCCGAANGCGAAG; 2'-O-methyl at 1, 2, 3, 4, 5, 6, 7, 15, 16, 17, 18, 19, 20, 21, 22, 23, 24, 25, 26, 31, 32, 33, 34, 35, 36, [I] at 30, [invAb] at 3' end, other sugars and backbone not given here) [compound 22781]”, 70.67%. Consider “22727 (GGACGAGUGAUGGCAUGCACUAUGCGCGACUUUGU; sugars from the 5' end mmmmmmmmrrrmmmmmrmmmmmmmmmrmmmmmmmm, [invAb] at 3' end, backbone not given here) [compound 22727]”, for which the “% Substrate Cleaved in 3 hours” value came to 67.20%.

“22724 (GGAUGGUUGAUGGCAUGCACUAUGCGCGAGACAGG; sugars from the 5' end mmmmmmmmrrrmmmmmrmmmmmmmmmrmmmmmmmm, [invAb] at 3' end, backbone not given here) [compound 22724]”: the “% Substrate Cleaved in 3 hours” value amounted to 65.16%. In the case of “22756 (UGGAAGAGCCGAAAGGCGAGUGAGGUCUGGCGUGA; 2'-O-methyl at 1, 2, 3, 4, 5, 6, 7, 8, 9, 10, 11, 12, 13, 14, 15, 16, [2NH2-N] at 17, 27, [invAb] at 3' end, other sugars and backbone not given here) [compound 22756]”, the “% Substrate Cleaved in 3 hours” value was determined as 73.47%.

With “22952 (GACUGGACUGAUGAGGCCGUUAGGCCGAAAUGCACG; 2'-O-methyl at 1, 2, 3, 4, 5, 6, 7, 15, 16, 17, 18, 19, 20, 21, 22, 23, 24, 25, 26, 31, 32, 33, 34, 35, 36, [invAb] at 3' end, other sugars and backbone not given here) [compound 22952]”, the “% Substrate Cleaved in 3 hours” value was 86.96%.
